Results reported in patent US20100317630A1, “NOVEL HETEROCYCLIC COMPOUNDS AS MGLU5 ANTAGONISTS” (RECORDATI IRELAND LIMITED, priority 2009, published 2010).

Experiments:
[1] = molecular target: T1, mGlu5 receptor (Rattus norvegicus, UniProt P31424); experiment: Radioligand binding assay at metabotropic glutamate receptor 5 in rat brain ([3H]MPEP, forebrain membranes); conditions: 4 nM [3H]MPEP, read-out: affinity (Ki) for mGlu5 receptor
T1 construct: from tissue; host or cells: forebrain (cortex, striatum and hippocampus) of male Sprague Dawley rats
T1 sequence (P31424 21-1203): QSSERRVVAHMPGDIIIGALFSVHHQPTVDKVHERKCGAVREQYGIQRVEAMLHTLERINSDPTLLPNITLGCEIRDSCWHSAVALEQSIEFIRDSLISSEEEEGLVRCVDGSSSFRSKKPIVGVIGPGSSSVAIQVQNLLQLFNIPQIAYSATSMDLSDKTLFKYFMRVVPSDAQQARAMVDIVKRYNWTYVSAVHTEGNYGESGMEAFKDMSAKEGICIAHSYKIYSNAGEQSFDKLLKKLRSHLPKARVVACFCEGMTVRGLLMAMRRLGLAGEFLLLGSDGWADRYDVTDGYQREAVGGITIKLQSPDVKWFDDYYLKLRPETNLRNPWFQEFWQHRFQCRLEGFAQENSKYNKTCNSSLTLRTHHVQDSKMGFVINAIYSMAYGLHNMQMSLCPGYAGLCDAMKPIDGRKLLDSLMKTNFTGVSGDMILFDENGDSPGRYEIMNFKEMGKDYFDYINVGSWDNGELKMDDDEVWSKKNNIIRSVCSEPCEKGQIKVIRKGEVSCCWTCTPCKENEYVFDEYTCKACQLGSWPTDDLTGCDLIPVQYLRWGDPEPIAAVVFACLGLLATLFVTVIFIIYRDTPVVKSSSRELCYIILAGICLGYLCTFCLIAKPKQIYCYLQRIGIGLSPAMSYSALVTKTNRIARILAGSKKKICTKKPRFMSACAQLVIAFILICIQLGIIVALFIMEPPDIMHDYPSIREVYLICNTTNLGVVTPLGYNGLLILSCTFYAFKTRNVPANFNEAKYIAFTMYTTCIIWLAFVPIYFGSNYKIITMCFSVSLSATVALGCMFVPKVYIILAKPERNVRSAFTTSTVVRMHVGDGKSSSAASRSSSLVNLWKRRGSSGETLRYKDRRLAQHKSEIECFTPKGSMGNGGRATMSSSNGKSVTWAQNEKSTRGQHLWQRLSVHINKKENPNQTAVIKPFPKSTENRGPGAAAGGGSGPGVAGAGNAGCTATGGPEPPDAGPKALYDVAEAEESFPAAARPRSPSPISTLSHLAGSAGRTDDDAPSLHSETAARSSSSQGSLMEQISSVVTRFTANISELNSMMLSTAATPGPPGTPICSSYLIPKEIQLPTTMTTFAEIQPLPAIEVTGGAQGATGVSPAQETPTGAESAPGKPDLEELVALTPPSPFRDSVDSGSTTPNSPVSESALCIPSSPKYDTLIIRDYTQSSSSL
Description: Radioligand Binding Assay at metabotropic glutamate receptor 5 in rat brain.
a) Membrane preparation: male Sprague Dawley rats (200-300 g, Charles River, Italy) were killed by cervical dislocation and the forebrain (cortex, striatum and hippocampus) was homogenized (2×20 sec) in 50 vols of cold 50 mM Tris buffer pH 7.4, using a Politron homogenizer (Kinematica). Homogenates were centrifuged at 48000×g for 15 min, resuspended in 50 vols of the same buffer, incubated at 37° C. for 15 min and centrifuged and resuspended two more times. The final pellets were frozen and stored at −80° C. until use.
b) Binding assay: pellets from rat forebrain were resuspended in 100 vols of 20 mM HEPES, 2 mM MgCl2, 2 mM CaCl2, pH 7.4. The membranes were incubated in a final volume of 1 ml for 60 min at 25° C. with 4 nM [^3H]MPEP in the absence or presence of competing drugs. Non-specific binding was determined in the presence of 10 μM MPEP (Spooren W. et al., Trends Pharmacol Sci. 22, 331-337, 2001). The incubation was stopped by the addition of cold Tris buffer pH 7.4 and rapid filtration through 0.5% polyethyleneimine pretreated Filtermat 1204-401 (Wallac) filters. The filters were then washed with cold buffer and the radioactivity retained on the filters was counted by liquid scintillation spectrometry. […]

[2] = test system: conscious rats; experiment: Effect on cystometry in conscious rats (bladder volume capacity); assay type: in vivo, rat
Description: Male Sprague-Dawley rats [Crl: CD® (SD) IGS BR] of 300-400 g b.w. supplied by Charles River Italia were used. The animals were housed with free access to food and water and maintained on a forced 12-hour-light/12-hour-dark cycle at 22-24° C. of temperature, except during the experiment. To quantify urodynamic parameters in conscious rats, cystometrographic studies were performed according to the procedure previously reported (Guarneri et al., Pharmacol. Res. 24: 175, 1991).
Briefly, the rats were anaesthetised by intraperitoneal administration of 3 ml/kg of Equithensin solution (pentobarbital 30 mg/kg and chloral hydrate 125 mg/kg) and placed in a supine position. An approximately 10 mm long midline incision was made in the shaved and cleaned abdominal wall. The urinary bladder was gently freed from adhering tissues, emptied and then cannulated via an incision in the bladder body, using a polyethylene cannula (0.58 mm internal diameter, 0.96 mm external diameter) which was permanently sutured with silk thread. […]
On the day of the experiment, the rats were placed in modified Bollman cages, i.e., restraining cages that were large enough to permit the rats to adopt a normal crouched posture, but narrow enough to prevent turning around. […] The intraluminal-pressure signal during infusion of saline into the bladder (cystometrogram) was continuously recorded on a polygraph (Rectigraph-8K San-ei with BM614/2 amplifier from Biomedica Mangoni) or stored on PC by data acquisition system (PowerLab, Chart 4 software, AD Instruments). From the cystometrogram, bladder volume capacity (BVC) was evaluated. […] Basal BVC value was evaluated as the mean of the values observed in the cystometrograms recorded in an initial period of 30-60 minutes. […] The bladder infusion restarted and changes in BVC were evaluated from the mean values obtained in the cystometrograms observed during 1, 2, and 3 hours after treatment. […]
Each experimental group was composed of 4-11 animals. All data were expressed as mean±standard error. […]

| Ki [1] [nM] | SMILES | increase of bladder volume capacity ([2]; 1 mg/kg orally) | increase of bladder volume capacity ([2]; 3 mg/kg orally, statistically significant from the vehicle group after 3 hours from treatment) | MED (Minimal Effective Dose that induces statistically significant increase of bladder volume capacity) ([2]; oral) |
| --- | --- | --- | --- | --- |
| 1.42 | Cc1ccc([N+](=O)[O-])c(N2CCC(=C/C=C/c3ccccc3)CC2)n1 [Example 1, 6-Methyl-3-nitro-2-[4-[(E)-3-phenylprop-2-enylidene]-1-piperidyl]pyridine] |  |  |  |
|  | Cc1nc(C#Cc2cccnc2)cs1 [MTEP] | slight increase | sustained increase | 3 |
